{
  "source": "patent US8198317B2",
  "about": "“Methylenedioxy phenolic compounds and their use to treat disease” (The Ohio State University Research Foundation, priority 2008, dated 2012)",
  "key": {"[1]": {"test_system": "SREBP-2", "test": "SREBP-2 precursor and mature form by western analysis in HepG2 cells", "format": "cell-based, human", "conditions": "HepG2, 1 hour", "method": "FIG. 5C is a graph showing in vitro time course SREBP2 activation measured by the assessment of the mature form with INV-75 in the cytoplasm of treated cells. HepG2 cells were stimulated with INV-75 (0.1 mM) for four hours and the mature and precursor forms of SREBP2 was measured by western blot analysis. A total of three experiments were performed. *, p<0.01 by ANOVA compared to vehicle. The corresponding western blot is depicted on the right. Time is in hours on the right.\nFIG. 5D is a graph showing dose dependent effects of INV-75 on SREBP2 activation assessed with mature form INV-75. HepG2 cells were stimulated with multiple concentrations of INV-75 for 1 hour and the mature and precursor forms of SREBP2 was measured by western blot analysis. A total of three experiments were performed. *, p<0.01 by ANOVA compared to vehicle. Dose of INV-75 is log molar concentration.\nA family of transcription factors designated SREBP (sterol regulatory element binding proteins) regulate synthesis of cholesterol and fatty acids. […] The time course with this dose and dose dependence was analyzed. Next we assessed the expression of both precursor and mature form of SREBP-2 in the cytoplasm by western analysis. Both time course and dose dependence of mature form of SREBP-2 was analyzed."}, "[2]": {"target": "T1, PPARγ (Homo sapiens, UniProt P37231)", "T1 construct": "GAL4-PPARδ-LBD plasmid+UAS-Luciferase and GAL4-PPARα-LBD plasmid+UAS-Luciferase; expressed in transfected cells; host or cells: HepG2", "T1 sequence (P37231 238-503 limits assumed, species assumed)": "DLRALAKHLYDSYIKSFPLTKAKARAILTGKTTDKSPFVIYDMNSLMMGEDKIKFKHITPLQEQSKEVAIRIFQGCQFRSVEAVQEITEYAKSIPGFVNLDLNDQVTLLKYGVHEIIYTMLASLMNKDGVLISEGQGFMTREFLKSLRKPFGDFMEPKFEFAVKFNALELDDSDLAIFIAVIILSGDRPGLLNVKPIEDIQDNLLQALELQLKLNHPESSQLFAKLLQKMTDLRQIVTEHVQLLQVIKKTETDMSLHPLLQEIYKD", "test": "GAL4-PPARγ-LBD luciferase assay in HepG2 cells", "format": "cell-based", "conditions": "1 μM to 1000 μM", "description": "We used a reporter gene assay in HepG2 cells to screen for agonists of the peroxisome proliferator-activated receptors. Peroxisome proliferator-activated receptors (PPARs) and other members of the nuclear hormone receptor family are important drug targets for the treatment of metabolic diseases. PPARs play crucial roles in lipid and glucose metabolism, respectively. Therefore, screening methods that help to rapidly identify activators of these receptors should be of considerable value. INV-75 activated a classic PPARα gene, Acetyl-CoA Oxidase (ACO) in a dose dependent and time dependent fashion (FIG. 6A). The time course experiment was performed in presence of INV-75 up to 15 hours. […] We next tested the specificity of INV-75 for PPARα by performing experiments in HepG2 cells transfected with yeast GAL4-PPARα-LBD plasmid+UAS-Luciferase; GAL4-PPARδ-LBD plasmid+UAS-Luciferase and […]. The PPARα, PPARδ and PPARγ binding assays were performed using multiple concentrations of INV-75 (1 μM, 10 μM, 100 μM and 1000 μM). The level of luciferase activity corresponded to the degree of PPAR activation. The results were compared with classic PPAR agonists such as WY-14643 (PPARα agonist), Bezafibrate (PPARδ agonist) and Rosiglitazone ([…])."}, "[3]": {"test_system": "Watanabe Heritable Hyperlipidemic Rabbits (WHHL)", "test": "MRI of abdominal aortic wall volume in WHHL rabbits", "format": "in vivo, rabbit", "method": "In vivo experiments on hypercholesterolemic rabbits (Watanabe Heritable Hyperlipidemic Rabbits, WHHL) were performed in 6 rabbits treated with INV-75. Four rabbits served as controls.\nAnimal Model: WHHL rabbits weighing approximately 2 kg at 2 months were purchased from Brown Family in Alabama and housed in the institutional Laboratory Animal Center. Rabbits at the age of 6 months were used for all experiments. Rabbits were allowed free access to water and were fed a high cholesterol chow (2% cholesterol) from Harlan Tekad TD 7251. The animal care and experimental protocols were in accordance with nationally approved guidelines. The protocol that the rabbits were subjected to is outlined in FIG. 7. INV-75 was dissolved in 90% ethanol and sprayed on the high fat chow. The diet-drug mixture was then vacuum dried overnight to remove ethanol and then used to feed rabbits.\nEach animal underwent three MRI studies: the first one prior to high fat feeding (baseline prior to drug administration); the second at the mid-point of drug therapy; and the final study after 12 weeks of drug therapy (FIG. 7). […] At the end of the study, all animals underwent an MRI study for plaque volume quantification. […]\nHigh-resolution non-invasive MRI served to assess the degree of atherosclerosis before and after the corresponding treatments. Atherosclerotic plaque in the abdominal aorta of WHHL rabbits was analyzed by in vivo MRI scans at the indicated time points (FIG. 7). […] Plaque burden was determined by manually tracing the external elastic lamina (EEM) and the luminal border (L) and determining the area within each boundary using Siemens Viewer software. Slice volume (V) was calculated as V=(EEM-L)*4.0 and total wall volume per animal was calculated using the formula TWV=Σ[(EEM-L)*4] and expressed in mm^3. TWVs for each animal at each time point were normalized for varying numbers of readable slices with the formula NWV=(TWV/n)*m; n=number of slices readable in the individual animal and m=mean number of slices readable in all animals over all time points. […]"}},
  "data": [
    {"molecule": "CC(=O)Oc1cc2c(cc1[N+](=O)[O-])OCO2", "note": "[INV-75, 3,4-methylenedioxy-6-nitrophenyl acetate]", "values": [
      {"measurement": "dose having an effect in increasing the mature form of SREBP-2", "setting": "[1]", "value": "≥ 10", "unit": "nM"},
      {"measurement": "effects on PPARγ", "setting": "[2]", "value": "without effects"},
      {"measurement": "wall volume, abdominal aorta, MRI", "setting": "[3]; 12 weeks", "value": 0.37, "unit": "cm^3"},
      {"measurement": "Mean normalized wall volume (NWV), abdominal aorta, MRI", "setting": "[3]; baseline, prior to supplementation", "value": 0.24, "unit": "cm^3"},
      {"measurement": "mean plaque volume, abdominal aorta, MRI", "setting": "[3]; study midpoint, 6 weeks of supplementation", "value": 0.35, "unit": "cm^3"}
    ]}
  ]
}
